Measured values published in article PMC10377643, “Exploration of Bis-Cinnamido-Polyamines as Intrinsic Antimicrobial Agents and Antibiotic Enhancers” (Biomolecules, 2023).
In brackets after ≈: the same amount, converted by molar mass. Values belong to the compound of their own block, whether it stands above or below them.

Legend:
human red blood cells = assay: Hemolytic assay; type: cell-based; settings: mean (n = 2)
Description: Hemolysis assays were conducted using the protocols previously reported.

MRSA ATCC 43300 = assay: Antimicrobial MIC, MRSA (CO-ADD); type: cell-based, methicillin-resistant S. aureus; settings: Staphylococcus aureus; MRSA ATCC 43300; mean (n = 2); read-out: MIC MRSA
Description: (§1) The susceptibility of bacterial strains S. aureus (ATCC 25923), E. coli (ATCC 25922) and P. aeruginosa (ATCC 27853) to antibiotics and compounds was determined using protocols reported previously. Additional antimicrobial evaluation against MRSA (ATCC 43300), Klebsiella pneumoniae (ATCC 700603), Acinetobacter baumannii (ATCC 19606), Candida albicans (ATCC 90028) and Cryptococcus neoformans (ATCC 208821) was undertaken at the Community for Open Antimicrobial Drug Discovery at The University of Queensland (Australia) according to their standard protocols reported previously.

E. coli ATCC 25922 [1] = assay: Antimicrobial MIC, E. coli; type: cell-based, Escherichia coli; settings: Escherichia coli, ATCC25922, E. coli ATCC 25922; mean (n = 3)
Description: as §1

K. pneumoniae ATCC 13883 [2] = assay: Intrinsic MIC, K. pneumoniae ATCC 13883; type: cell-based; settings: Klebsiella pneumoniae, ATCC13883; K. pneumoniae ATCC 13883; substance alone; read-out: MIC alone, K. p
Description: (§2) Antibiotic enhancer concentrations were determined using previously reported protocols.

K. pneumoniae ATCC 13883 [3] = assay: Antibiotic potentiation by 13b, K. pneumoniae; type: cell-based, Klebsiella pneumoniae
Description: as §2
(§3) The antibiotic-enhancing activities of 13b, the strongest non-toxic doxycycline enhancer, were further evaluated with an expanded set of antibiotics (minocycline, chloramphenicol, vancomycin, nalidixic acid and erythromycin) against three drug-resistant strains of Gram-negative bacteria (P. aeruginosa, K. pneumoniae and A. baumannii) (Table 3). […] However, 13b was able to strongly potentiate the activity of minocycline against P. aeruginosa, K. pneumoniae and A. baumannii (>41-fold, >82-fold and >82-fold, respectively) while also enhancing the activity of doxycycline against P. aeruginosa (>40-fold). The enhancing activity of doxycycline against A. baumannii and K. pneumoniae was not investigated due to its sensitivity to these strains.

S. aureus ATCC 25923 = assay: Antimicrobial MIC, S. aureus; type: cell-based; settings: Staphylococcus aureus, ATCC25923, mean (n = 3)
Description: as §1

P. aeruginosa ATCC 27853 [4] = assay: Antimicrobial MIC, P. aeruginosa; type: cell-based; settings: Pseudomonas aeruginosa, ATCC27853, mean (n = 3)
Description: as §1

[5] = tested on: HEK293 human embryonic kidney cells; assay: Cytotoxicity assay; type: cell-based; settings: mean (n = 2)
Description: (§4) Cytotoxicity assays were conducted using the protocols previously reported.

Cytotoxicity assay = type: cell-based, human; settings: human, HEK293 human embryonic kidney cells, mean (n = 2), read-out: Cytotoxicity (IC50), concentration of compound at 50% cytotoxicity
Description: as §4

E. coli ATCC 25922 [6] = assay: Erythromycin enhancement against E. coli; type: cell-based, Escherichia coli; settings: erythromycin fixed at 10.9 µM (8 µg/mL)
Description: as §2

C. albicans ATCC 90028 = assay: Antifungal MIC, C. albicans (CO-ADD); type: cell-based; settings: Candida albicans, ATCC90028, mean (n = 2)
Description: as §1

A. baumannii AYE [7] = assay: Antibiotic potentiation by 13b, A. baumannii; type: cell-based, Acinetobacter baumannii
Description: as §2, §3

P. aeruginosa PAO1 [8] = assay: Antibiotic potentiation by 13b, P. aeruginosa PAO1; type: cell-based, Pseudomonas aeruginosa
Description: as §2, §3

P. aeruginosa PAO1 [9] = assay: Intrinsic MIC, P. aeruginosa PAO1; type: cell-based; settings: Pseudomonas aeruginosa; P. aeruginosa PAO1; substance alone (no antibiotic / no enhancer); read-out: MIC alone, P. a
Description: as §2

[10] = tested on: C. neoformans ATCC 208821; assay: Antifungal MIC, C. neoformans (CO-ADD); type: cell-based; settings: Cryptococcus neoformans, ATCC208821, mean (n = 2)
Description: as §1

P. aeruginosa ATCC 27853 [11] = assay: Doxycycline enhancement against P. aeruginosa; type: cell-based, Pseudomonas aeruginosa; settings: doxycycline fixed at 4.5 µM
Description: as §2
We then evaluated the set of analogues for the ability to enhance the antibiotic activity of doxycycline against P. aeruginosa ATCC 27853 and of erythromycin against E. coli ATCC 25922 (Table 2). In the case of doxycycline, a fixed concentration of the antibiotic of 4.5 μM, which is twenty-fold lower than the intrinsic MIC 90 μM against this organism, was used. Each of the test compounds was then evaluated at a range of concentrations varying from 3.125 to 50–100 μM, with the upper concentration dependent upon the compounds intrinsic MIC towards P. aeruginosa (Table 1). […] While the observation of cytotoxicity/hemolytic properties of 16a–c, 14f and 13f reduces our interest in these analogues, analogues 13b and 13d were identified as non-toxic and strong enhancers of the action of doxycycline towards P. aeruginosa.

A. baumannii AYE [12] = assay: Intrinsic MIC, A. baumannii AYE; type: cell-based; settings: Acinetobacter baumannii; A. baumannii AYE; substance alone; read-out: MIC alone, A. b
Description: as §2

[13] = tested on: antimicrobial activity (microbes not named); set-up: method as in PMID 36982955; settings: cited from earlier work
P. aeruginosa = tested on: P. aeruginosa; set-up: method as in PMID 36982955; settings: cited from earlier work

SMILES: O=C(C=Cc1ccccc1)NCCCNCCCCCCNCCCNC(=O)C=Cc1ccccc1.O=C(O)C(F)(F)F.O=C(O)C(F)(F)F [Compound 13b, N^1,N^6-Bis(3-cinnamamidopropyl)hexane-1,6-diaminium 2,2,2-trifluoroacetate]
- Hemolysis (HC10), concentration of compound at 10% hemolytic activity (human red blood cells): >44.5 µM
- MIC (MRSA ATCC 43300): > 44.5 µM
- MIC (E. coli ATCC 25922 [1]): 100 µM
- MIC (K. pneumoniae ATCC 13883 [2]): > 278 µM
- Concentration for potentiation of chloramphenicol (K. pneumoniae ATCC 13883 [3]; chloramphenicol 2 µg/mL, n = 2): >200 µM
- Concentration for potentiation of erythromycin (K. pneumoniae ATCC 13883 [3]; erythromycin 2 µg/mL, n = 2): >200 µM
- Fold change, minocycline (K. pneumoniae ATCC 13883 [3]; minocycline 2 µg/mL): > 82 fold
- Concentration for potentiation of minocycline (K. pneumoniae ATCC 13883 [3]; minocycline 2 µg/mL, n = 2): 3.41 µM
- Concentration for potentiation of nalidixic acid (K. pneumoniae ATCC 13883 [3]; nalidixic acid 2 µg/mL, n = 2): >200 µM
- Fold change, vancomycin (K. pneumoniae ATCC 13883 [3]; vancomycin 2 µg/mL): > 2 fold
- Concentration for potentiation of vancomycin (K. pneumoniae ATCC 13883 [3]; vancomycin 2 µg/mL, n = 2): 138 µM
- MIC (S. aureus ATCC 25923): > 200 µM
- MIC (P. aeruginosa ATCC 27853 [4]): > 200 µM
- Cytotoxicity (IC50), concentration of compound at 50% cytotoxicity [5]: non-toxic
- IC50 (Cytotoxicity assay): > 44.5 µM
- Eryth/E. c: concentration required to restore erythromycin activity (E. coli ATCC 25922 [6]): 25 µM
- Eryth/E. c: fold change (intrinsic MIC of test compound / combination MIC) (E. coli ATCC 25922 [6]): 4 fold
- MIC (C. albicans ATCC 90028): > 44.5 µM
- Fold change, chloramphenicol (A. baumannii AYE [7]; chloramphenicol 2 µg/mL): > 4 fold
- Concentration for potentiation of chloramphenicol (A. baumannii AYE [7]; chloramphenicol 2 µg/mL, n = 2): 77.4 µM
- Fold change, erythromycin (A. baumannii AYE [7]; erythromycin 2 µg/mL): > 2 fold
- Concentration for potentiation of erythromycin (A. baumannii AYE [7]; erythromycin 2 µg/mL, n = 2): 136 µM
- Fold change, minocycline (A. baumannii AYE [7]; minocycline 2 µg/mL): > 82 fold
- Concentration for potentiation of minocycline (A. baumannii AYE [7]; minocycline 2 µg/mL, n = 2): 3.41 µM
- Concentration for potentiation of nalidixic acid (A. baumannii AYE [7]; nalidixic acid 2 µg/mL, n = 2): >200 µM
- Fold change, vancomycin (A. baumannii AYE [7]; vancomycin 2 µg/mL): > 2 fold
- Concentration for potentiation of vancomycin (A. baumannii AYE [7]; vancomycin 2 µg/mL, n = 2): 138 µM
- Fold change, chloramphenicol (P. aeruginosa PAO1 [8]; chloramphenicol 2 µg/mL): > 7 fold
- Concentration for potentiation of chloramphenicol (P. aeruginosa PAO1 [8]; chloramphenicol 2 µg/mL, n = 2): 38.7 µM
- Fold change, doxycycline (P. aeruginosa PAO1 [8]; doxycycline 2 µg/mL): > 40 fold
- Concentration for potentiation of doxycycline (P. aeruginosa PAO1 [8]; doxycycline 2 µg/mL, n = 2): 7.03 µM
- Fold change, erythromycin (P. aeruginosa PAO1 [8]; erythromycin 2 µg/mL): > 2 fold
- Concentration for potentiation of erythromycin (P. aeruginosa PAO1 [8]; erythromycin 2 µg/mL, n = 2): 136 µM
- Fold change, minocycline (P. aeruginosa PAO1 [8]; minocycline 2 µg/mL): > 41 fold
- Concentration for potentiation of minocycline (P. aeruginosa PAO1 [8]; minocycline 2 µg/mL, n = 2): 6.83 µM
- MIC (P. aeruginosa PAO1 [9]): > 278 µM
- MIC [10]: 44.5 µM
- Dox/P. a: concentration required to restore doxycycline activity (P. aeruginosa ATCC 27853 [11]): 3.125 µM
- MIC (A. baumannii AYE [12]): > 278 µM

- MIC (K. pneumoniae ATCC 13883 [2]): 27 µM (≈ 12.4 µg/mL)
- MIC (P. aeruginosa PAO1 [9]): 70 µM
- MIC (A. baumannii AYE [12]): 27 µM (≈ 12.4 µg/mL)
SMILES: CN(C)c1ccc(O)c2c1C[C@H]1C[C@H]3[C@H](N(C)C)C(O)=C(C(N)=O)C(=O)[C@@]3(O)C(O)=C1C2=O [minocycline]

SMILES: COc1ccc(/C=C/C(=O)NCCCNCCCCCCCCNCCCNC(=O)/C=C/c2ccc(OC)cc2)cc1.O=C(O)C(F)(F)F.O=C(O)C(F)(F)F [Compound 14d, N^1,N^8-Bis(3-((E)-3-(4-methoxyphenyl)acrylamido)propyl)octane-1,8-diaminium 2,2,2-trifluoroacetate]
- MIC (MRSA ATCC 43300): ≤ 0.31 µM
- MIC (E. coli ATCC 25922 [1]): 62 µM
- MIC (S. aureus ATCC 25923): 7.75 µM
- MIC (P. aeruginosa ATCC 27853 [4]): 248 µM
- Cytotoxicity (IC50), concentration of compound at 50% cytotoxicity [5]: does not exhibit cytotoxicity/hemolysis
- IC50 (Cytotoxicity assay): > 39.7 µM
- Eryth/E. c: concentration required to restore erythromycin activity (E. coli ATCC 25922 [6]): 62 µM
- Eryth/E. c: fold change (intrinsic MIC of test compound / combination MIC) (E. coli ATCC 25922 [6]): 1 fold
- MIC (C. albicans ATCC 90028): > 39.7 µM
- Dox/P. a: concentration required to restore doxycycline activity (P. aeruginosa ATCC 27853 [11]): 15.5 µM
- Dox/P. a: fold change (intrinsic MIC of test compound / combination MIC) (P. aeruginosa ATCC 27853 [11]): 16 fold

SMILES: O=C(CCc1ccccc1)NCCCNCCCCCCCCNCCCNC(=O)CCc1ccccc1 [Compound 18]
- Antimicrobial activity [13]: devoid of antimicrobial activity
- Ability to enhance the action of doxycycline towards P. aeruginosa (P. aeruginosa): devoid

- MIC (K. pneumoniae ATCC 13883 [2]): > 200 µM
- MIC (P. aeruginosa PAO1 [9]): > 200 µM
- MIC (A. baumannii AYE [12]): > 200 µM
SMILES: CC[C@H]1OC(=O)[C@H](C)[C@@H](O[C@H]2C[C@@](C)(OC)[C@@H](O)[C@H](C)O2)[C@H](C)[C@@H](O[C@@H]2O[C@H](C)C[C@H](N(C)C)[C@H]2O)[C@](C)(O)C[C@@H](C)C(=O)[C@H](C)[C@@H](O)[C@]1(C)O [erythromycin]

SMILES: O=C(CCc1ccccc1)NCCCNCCCCCCNCCCNC(=O)CCc1ccccc1 [Compound 17]
- Antimicrobial activity [13]: devoid of antimicrobial activity
- Ability to enhance the action of doxycycline towards P. aeruginosa (P. aeruginosa): devoid
